Where two headings read alike, the source gives them in different places.
Columns and labels:
[1] = target: HDAC3 (Homo sapiens, UniProt O15379); assay: HDAC biochemical activity measurement (fluorescent substrate deacetylation);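 also: fluorogenic acetyl-lysine substrate (20 µM) deacetylated by HDAC3, then developer added for 15 min at room temperature, release of fluorophore read at excitation 360 nm, emission 460 nm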
[2] = target: HDAC1 (Homo sapiens, UniProt Q13547); assay: as above;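 also: fluorogenic acetyl-lysine substrate (20 µM) deacetylated by HDAC1, then developer releases fluorophore read at 360 nm excitation and 460 nm emission, inhibitor incubated 30 min at 37 °C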
[3] = tested on: Hela (human cervical cancer cells); assay: MTT cancer cell growth inhibition; assay type: cell-based; details: MTT
Procedure, shortened: (§1)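 Absorbance at 570 nm of DMSO-dissolved formazan, formed during a 4 h MTT incubation, served as the viability measure. Cells had been exposed 72 h to drug at 10^−5–10^−10 M final; GI50 was calculated from these readings.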

[4] = tested on: KBM5-T315I (human chronic myelogenous leukemia); assay: MTT cancer cell growth inhibition; assay type: cell-based; details: MTT, 72 hours incubation, KBM5-T315I cells, read-out: GI50 KBM5-T315I
Procedure, shortened: as §1

[5] = tested on: Huh-7 (human hepatoma cells); assay: MTT cancer cell growth inhibition; assay type: cell-based; details: MTT, 72 hours incubation, Huh-7 cells, read-out: GI50 Huh-7
Procedure, shortened: as §1

[6] = tested on: N-87 (human gastric cancer cells); assay: MTT cancer cell growth inhibition; assay type: cell-based; details: MTT, 72 hours incubation, N-87 cells, read-out: GI50 N-87
Procedure, shortened: as §1

[7] = tested on: SGC-7901 (human gastric cancer cells); assay: MTT cancer cell growth inhibition; assay type: cell-based; details: MTT, 72 hours incubation, SGC-7901 cells, read-out: GI50 SGC-7901
Procedure, shortened: as §1

[8] = tested on: BGC-823 (human gastric cancer cells); assay: MTT cancer cell growth inhibition; assay type: cell-based; details: MTT
Procedure, shortened: as §1

[9] = tested on: HT1080 (human fibrosarcoma cells); assay: MTT cancer cell growth inhibition; assay type: cell-based; details: MTT
Procedure, shortened: as §1

[10] = tested on: KBM-5 (human chronic myelogenous leukemia); assay: MTT cancer cell growth inhibition; assay type: cell-based; details: MTT, 72 hours incubation, KBM-5 cells, read-out: GI50 KBM-5
Procedure, shortened: as §1

[11] = tested on: MDA-MB-231 (breast cancer cells); assay: MTT cancer cell growth inhibition; assay type: cell-based
Procedure, shortened: as §1

[12] = target: T1, HDAC7 (Homo sapiens, UniProt Q8WUI4); assay: HDAC biochemical activity measurement (fluorescent substrate deacetylation);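 also: fluorogenic deacetylation assay using acetyl-lysine substrate at 20 µM, enzyme and compound incubated 30 min at 37 °C, then developer added, fluorescence read at 360/460 nm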; details: HDAC7; 37° C. 30 minutes
T1 sequence (Q8WUI4 1-952): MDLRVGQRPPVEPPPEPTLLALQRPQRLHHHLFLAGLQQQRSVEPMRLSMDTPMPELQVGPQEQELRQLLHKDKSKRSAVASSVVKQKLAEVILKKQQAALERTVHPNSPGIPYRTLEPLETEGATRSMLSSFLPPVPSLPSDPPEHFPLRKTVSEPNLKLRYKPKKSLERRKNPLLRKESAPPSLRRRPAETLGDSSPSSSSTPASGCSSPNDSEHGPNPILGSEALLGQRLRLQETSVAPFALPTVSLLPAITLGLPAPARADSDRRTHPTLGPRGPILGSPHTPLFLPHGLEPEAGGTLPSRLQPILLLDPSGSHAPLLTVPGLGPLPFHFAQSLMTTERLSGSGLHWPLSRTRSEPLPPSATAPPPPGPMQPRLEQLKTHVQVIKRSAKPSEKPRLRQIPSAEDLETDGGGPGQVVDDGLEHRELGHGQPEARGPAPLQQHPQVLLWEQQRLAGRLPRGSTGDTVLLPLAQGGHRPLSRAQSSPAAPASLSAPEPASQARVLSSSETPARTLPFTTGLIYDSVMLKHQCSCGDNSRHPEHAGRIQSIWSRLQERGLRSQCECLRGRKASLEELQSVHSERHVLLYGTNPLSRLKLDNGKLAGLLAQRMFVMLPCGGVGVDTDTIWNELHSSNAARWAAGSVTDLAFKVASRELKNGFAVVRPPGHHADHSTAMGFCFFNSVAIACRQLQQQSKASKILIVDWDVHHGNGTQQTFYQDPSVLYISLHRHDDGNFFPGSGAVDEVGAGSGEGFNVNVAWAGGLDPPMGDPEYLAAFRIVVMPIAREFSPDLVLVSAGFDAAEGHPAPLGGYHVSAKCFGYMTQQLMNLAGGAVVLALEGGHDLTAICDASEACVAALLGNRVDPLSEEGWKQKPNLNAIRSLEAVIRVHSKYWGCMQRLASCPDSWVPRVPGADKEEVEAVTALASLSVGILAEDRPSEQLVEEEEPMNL

[13] = target: T2, HDAC8 (Homo sapiens, UniProt Q9BY41); assay: as above; details: 37° C. 30 minutes
T2 sequence (Q9BY41 1-377): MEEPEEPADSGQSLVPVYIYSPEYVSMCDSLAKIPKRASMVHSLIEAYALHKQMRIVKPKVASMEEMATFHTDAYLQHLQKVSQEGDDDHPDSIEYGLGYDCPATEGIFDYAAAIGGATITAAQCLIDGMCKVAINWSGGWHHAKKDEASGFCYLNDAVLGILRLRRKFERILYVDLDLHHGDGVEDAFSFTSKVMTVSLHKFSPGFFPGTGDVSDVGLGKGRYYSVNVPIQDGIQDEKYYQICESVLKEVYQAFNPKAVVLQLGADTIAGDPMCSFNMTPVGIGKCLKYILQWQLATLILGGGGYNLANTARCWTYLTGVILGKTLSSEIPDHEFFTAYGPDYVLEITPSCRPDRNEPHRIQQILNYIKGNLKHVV
Experimental: The chemical activity of the compound is determined according to the degree of deacetylation inhibition of the HDAC enzyme. This experiment measured the degree of deacetylation related to tumor proliferation and metastasis of HDAC1, HDAC2, HDAC3, HDAC8, HDAC11 five subtypes HDAC enzymes. After the substrate containing an acetylated lysine side chain and HDAC enzyme are labeled with a fluorescent label, the fluorescent substrate is de acetyl. The fluorescent labeled substrate is cleaved by the enzyme, and the fluorescent substance is released, which generates 460 nm emission light under the excitation of 360 nm light.
HDAC substrate was diluted with reaction buffer to 200M (reaction concentration of 20M), the HDAC enzyme was diluted to the appropriate concentration, then added different concentrations of the test compounds and acted at 37° C. 30 minutes, and then added the same volume of 2-times concentration substrate developing solution (developer), incubated at room temperature for 15 minutes.

[14] = read-out: IC50 HDAC3, HDAC3, 37° C. 30 minutes
[15] = HDAC1, 37° C. 30 minutes, read-out: IC50 HDAC1
[16] = Homo sapiens, MDA-MB-231, 72 h, read-out: GI50 MDA-MB-231, MTT, 72 hours incubation, MDA-MB-231 cells
[17] = Table 3, column C, read-out: IC50 HDAC1, C (six-membered ring with substituents)
[18] = Homo sapiens, HeLa, 72 h, 72 hours incubation, read-out: GI50 Hela
[19] = Homo sapiens, BGC-823, 72 h, 72 hours incubation, read-out: GI50 BG
[20] = Homo sapiens, HT-1080, 72 h, 72 hours incubation, read-out: GI50 HT1
[21] = read-out: GI50 MDA-MB-231, MTT, 72 hours incubation, MDA-MB-231 cells

Chain of HDAC1 (Q13547 whole entry, species assumed): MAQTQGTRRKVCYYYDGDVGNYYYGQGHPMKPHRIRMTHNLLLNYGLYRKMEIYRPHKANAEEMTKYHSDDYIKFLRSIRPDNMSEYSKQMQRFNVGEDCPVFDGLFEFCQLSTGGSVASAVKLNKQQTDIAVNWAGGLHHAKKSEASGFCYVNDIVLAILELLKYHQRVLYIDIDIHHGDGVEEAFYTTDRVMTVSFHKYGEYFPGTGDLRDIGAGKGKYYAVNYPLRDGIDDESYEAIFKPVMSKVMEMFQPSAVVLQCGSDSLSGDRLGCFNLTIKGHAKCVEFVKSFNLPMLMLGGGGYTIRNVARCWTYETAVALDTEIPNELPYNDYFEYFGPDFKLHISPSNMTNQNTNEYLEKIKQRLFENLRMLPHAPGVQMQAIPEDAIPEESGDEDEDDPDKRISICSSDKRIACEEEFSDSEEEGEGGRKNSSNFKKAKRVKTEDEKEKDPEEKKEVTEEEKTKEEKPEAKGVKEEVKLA
Chain of HDAC3 (O15379 whole entry, species assumed): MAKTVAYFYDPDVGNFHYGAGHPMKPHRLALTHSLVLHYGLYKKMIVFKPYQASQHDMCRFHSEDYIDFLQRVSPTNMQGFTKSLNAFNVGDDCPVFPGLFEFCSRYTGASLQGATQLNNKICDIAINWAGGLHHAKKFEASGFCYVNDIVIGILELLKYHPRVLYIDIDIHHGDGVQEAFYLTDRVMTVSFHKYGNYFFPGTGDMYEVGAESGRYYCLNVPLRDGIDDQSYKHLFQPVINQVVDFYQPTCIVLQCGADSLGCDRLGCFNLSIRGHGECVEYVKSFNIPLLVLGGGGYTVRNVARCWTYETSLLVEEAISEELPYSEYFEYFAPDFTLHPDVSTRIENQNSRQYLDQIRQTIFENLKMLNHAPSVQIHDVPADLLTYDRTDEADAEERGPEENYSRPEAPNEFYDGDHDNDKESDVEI
Chain of HDAC3 (Q9Y618 395-489 partner limits assumed, species assumed): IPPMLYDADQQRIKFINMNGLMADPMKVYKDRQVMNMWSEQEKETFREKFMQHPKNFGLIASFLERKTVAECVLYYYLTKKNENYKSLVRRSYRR

IC50 [1, 14] [nM]	IC50 [2, 15] [nM]	GI50 ([4]; Homo sapiens, 72 h) [nM]	GI50 ([5]; Homo sapiens, Huh-7, 72 h) [nM]	GI50 ([6]; Homo sapiens, 72 h) [nM]	GI50 ([7]; Homo sapiens, SGC-7901, 72 h) [nM]	GI50 ([10]; Homo sapiens, KBM5, 72 h) [nM]	GI50 [11, 16] [nM]	IC50 HDAC7 [12]	IC50 [13] [nM]	GI50 [3, 18] [nM]	GI50 [8, 19] [nM]	GI50 [9, 20] [nM]	further results	SMILES
59	44	66	55	26	56	52	46	no activity	78	–	–	–	IC50 ([2]; Table 2, read-out: IC50 HDAC1, a (compounds of the present invention)): < 50 nM; GI50 ([3]; Homo sapiens, HeLa, 72 h, Hela cells, 72 hours incubation, read-out: GI50 Hela): 50 nM; GI50 ([3]; Homo sapiens, HeLa, 72 h, 72 hours, present invention, read-out: GI50 Hela, a): 55 nM; GI50 ([8]; Homo sapiens, BGC-823, 72 h, BGC-823 cells, 72 hours incubation, read-out: GI50 BG): 140 nM; GI50 ([8]; Homo sapiens, BGC-823, 72 h, 72 hours, present invention, read-out: GI50 BGC823, a): 140 nM; GI50 ([9]; Homo sapiens, HT-1080, 72 h, HT1080 cells, 72 hours incubation, read-out: GI50 HT1): 20 nM; GI50 ([9]; Homo sapiens, HT-1080, 72 h, 72 hours, present invention, read-out: GI50 HT1080, a): 26 nM	C/C=C1\NC(=O)c2cccc(n2)CNC(=O)C[C@@H](/C=C/CCSC(=O)CCCCCCC)OC(=O)[C@H](c2ccc(O)cc2)NC1=O [Compound 238]
25	22	47	35	43	57	91	35	no activity	35	90	40	50	IC50 [2, 17]: 22 nM	C/C=C1\NC(=O)c2cc(F)cc(n2)CNC(=O)C[C@@H](/C=C/CCSC(=O)CC)OC(=O)[C@H](C(C)C)NC1=O [Compound 46]
–	46	77	29	65	45	83	29	no activity	41	80	60	70	IC50 [1]: 51 nM	C/C=C1\NC(=O)c2nc(ccc2F)CNC(=O)C[C@@H](/C=C/CCSC=O)OC(=O)[C@H](C(C)C)NC1=O [Example 51]
31	41	31	38	61	25	91	38	no activity	26	90	60	30	IC50 [2, 17]: 41 nM	C/C=C1\NC(=O)c2nc(ccc2C)CNC(=O)C[C@@H](/C=C/CCSC(C)=O)OC(=O)[C@H](Cc2ccccc2)NC1=O [Compound 66]
67	187	37	65	44	42	54	78	no activity	73	370	53100	10800	IC50 ([2]; Table 3, read-out: IC50 HDAC1, D (non-substituent)): 187 nM	C/C=C1\NC(=O)c2cccc(n2)CNC(=O)C[C@@H](/C=C/CCSC(C)=O)OC(=O)[C@H](Cc2ccc(O)cc2)NC1=O [Compound 18]
–	81	–	–	–	–	–	–	no activity	14	70	–	40	IC50 [1]: 47 nM; GI50 [4]: 61 nM; GI50 [5]: 35 nM; GI50 [6]: 81 nM; GI50 [7]: 69 nM; GI50 ([8]; 72 hours incubation, read-out: GI50 BG): 80 nM; GI50 [10]: 76 nM; GI50 [11, 21]: 35 nM	C/C=C1\NC(=O)c2nc(ccc2F)CNC(=O)C[C@@H](/C=C/CCSC(C)=O)OC(=O)[C@H](C(C)C)NC1=O [Example 48]
122	35	–	–	–	–	–	–	no activity	78	–	–	–	GI50 ([3]; Hela cells, 72 hours incubation, read-out: GI50 Hela): 10 nM; GI50 [4]: 83 nM; GI50 [5]: 19 nM; GI50 [6]: 57 nM; GI50 [7]: 28 nM; GI50 ([8]; BGC-823 cells, 72 hours incubation, read-out: GI50 BG): 30 nM; GI50 ([9]; HT1080 cells, 72 hours incubation, read-out: GI50 HT1): 20 nM; GI50 [10]: 41 nM; GI50 [11, 21]: 19 nM	C/C=C1\NC(=O)c2ncc(SC)c(n2)CNC(=O)C[C@@H](/C=C/CCSC(C)=O)OC(=O)[C@H](C(C)C)NC1=O [Compound 217]
